# Patent US7482008B1, “Human T cell reactive feline protein (TRFP) isolated from house dust and uses therefor” (Merck Patent GmbH, priority 1989, dated 2009)
# Columns and labels:
# Assay type in all cases: in vivo, mouse
# BDF1 mice = experiment: Tolerization of mice with peptide s.c. or i.v., peptide-specific IL-2 production of lymph node cells (CTLL-2); conditions: 300 μg in PBS day 0 and 5, intravenously and subcutaneously; challenge 100 μg in CFA
# Method: Four groups of five BDF1 (C57BL/6J×DBA/2J) mice (females, 6-8 weeks of age), were injected either subcutaneously in a single dorsal site between the forelimbs or intravenously through one of the tail veins. […] The animals were sacrificed by cervical dislocation on day 20 and inguinal and popliteal nodes were removed and placed in rinsing buffer, cold RPMI 1640 containing 1% Fetal Bovine Serum (FBS). The nodes were rinsed with rinsing buffer and forced through a fine stainless steel mesh, using a glass pestal to suspend them in rinsing buffer. The suspended cells were rinsed two times by centrifugation at 1500 rpm for 10 minutes and resuspended with rinsing buffer. An aliquot of suspended cells from each animal was counted on a Coulter Counter Model ZB.
# The 0.2 ml cultures were done in triplicate in flat bottom 96 well plates (Costar) at 37° C. and 5% CO2. After 24 hours, […] of the media from each well was placed in separate round bottom 96 well plates (Costar) and was frozen overnight at −20° C. to eliminate carryover of live cells. The supernatants were tested after thawing for their ability to support the growth of CTLL-2, an IL-2 dependent T cell clone (ATCC TIB#214). […] The ^3H-incorporation in each well was counted by a Betaplate Model 1205 scintillation counter. […]
# Fel d I primed mice = experiment: Peptide Y s.c. in Fel d I primed mice, IL-2 production of lymph node cells; conditions: injected subcutaneously up to fifty-six days earlier; compared to control mice
# B6CBAF1 mice = experiment: Oral induction of T cell non-responsiveness, protocol 1; conditions: fed on days -7, -5, -2
# Method: (§1) The draining lymph nodes (i.e., inguinal, paraaortic and popliteal), the mesenteric lymph nodes, and the spleen were surgically removed from the animals 10-12 days after antigen challenge. Cells from these tissues were suspended by being forced through a stainless steel mesh with a glass pestle. The cells were washed twice in RPMI 1640 medium with a 1% fetal calf serum (FCS) before culture. All cells were cultured at 37° C. in 5% CO2 in RPMI 1640 with 10% FCS (no. F4884, Sigma), 100 units of penicillin G per ml, 10 μg of streptomycin per ml, 10 mM glutamine, and 0.05 mM 2-mercaptoethanol. […]. Cells were cultured in triplicate, 0.2 ml per well at 4×10^6 cells per ml, in 96-well plates. Supernatants were removed from the wells after 24 hours to test for the production of IL-2 or IL-3 and were frozen to kill any transferred cells or removed after 48 hours for testing IL-4 production. Separate triplicate wells were incubated for 96 hours for the proliferation assay. The supernatants were kept at […] for several days to kill transferred cells.
# (§2) Lymph node of spleen cells were plated in a flat bottom 96-well plate (4×10^5/well) in 100 μl medium. Peptide or recombinant protein or control solution (100 μl) is added to each well and the cells allowed to incubate for 1 day at 37° C. On day 2, the cultures were pulsed with [^3H] thymidine (1 μCi per well in 50 μl of medium; 1 Ci=37 GBq) for 4 to 6 hours, and on day 3, the plates were harvested with a 96-well harvester (Tomtec, Orange, Conn.) and counted on a Betaplate scintillation counter (Pharmacia, Upsaala Sweden).
# (§3) To measure IL-2, supernatants were tested after thawing for the ability to support the growth of an IL-2-dependent line such as CTLL-2 (University of California, Berkeley). […] After a 24 hour incubation, the cells were pulsed with [^3H] thymidine (1 μCi per well in 50 μl of medium; 1 Ci=37 GBq) for 4 to 6 hours and the plates were harvested with a 96-well harvester (Tomtec, Orange, Conn.) and counted on a Betaplate scintillation counter (Pharmacia, Upsaala Sweden).
# Balb/c mice = experiment: Oral rChain 1, single vs multiple doses, protocol 3
# Method: Five groups of five age-matched Balb/c mice were fed on days −7, −5 and −2 with 250 μg rChain 1 (Groups 1 and 4), 750 μg rChain 1 (Group 2), or with PBS (Groups 3 and 5). On day 0, the mice in Groups 1-3 were challenged with a s.c. injection of 100 μg rChain 1 in CFA, while the mice in Groups 4 and 5 were not challenged. On day 12 the draining and mesenteric lymph nodes and spleens were removed for proliferation, IL-2, IL-4 and TGF-beta assays.
# as §1, §2
# as §3, with “Berkeley). The cell line was maintained by passage in 10% supernatant of Con A-stimulated (5 μg/ml) rat spleen cells. This cell line is dependent almost exclusively on IL-2 for growth and survival, proliferating only weakly to high doses of recombinant IL-4.” for “Berkeley).”, “Sweden). […]” for “Sweden).”
Substance,specific IL-2 secretion of draining lymph node cells (BDF1 mice),IL-2 production of lymph node cells (Fel d I primed mice),spleen cell IL-2 production (B6CBAF1 mice),spleen cell proliferation (B6CBAF1 mice),proliferation of and production of IL-2 by draining and mesenteric lymph node cells (B6CBAF1 mice; challenge 100 μg in CFA),"production of IL-2 by mesenteric lymph node cells (Balb/c mice; cultured with rChain 1, Peptide X, and Peptide Y)","spleen cell response to peptide X (Balb/c mice; mouse, in vivo)","spleen cell response to rChain 1 and peptide Y (Balb/c mice; mouse, in vivo)","draining node response, single oral 750 μg vs several doses of 250 μg (Balb/c mice; mouse, in vivo, po)"
peptide Y: amino acid residues 29-55 from chain 1 of TRFP (SEQ. ID. NO: 18) (KALPVVLENARILKNCVDAKMTEEDKE),decreased specific IL-2 secretion,decreased IL-2 production,limited in their ability to produce IL-2,no effect on spleen cell proliferation,decreased,,,,
recombinant chain 1: recombinant TRFP chain 1 expressed in E. coli,,,,,,detectable tolerizing effect,not changed,moderately decreased,more effective
